Values quoted from earlier work in US20100129431A1, “IDEBENONE COMPOSITION FOR THE TREATMENT OF NEUROLOGICAL DISORDERS” (AlphaRx Inc., priority 2008, published 2010).

Tests used:
[1] = system: patients with cerebrovascular disease; conditions: 90 mg daily, nine patients
[2] = system: cultured cortical neurons; conditions: also when applied 30 minutes after the NMDA pulse
[3] = system: Friedreich's Ataxia patients
[4] = system: free radical species; conditions: cell cultures
[5] = system: microsomal lipid peroxidation; conditions: induced by ADP-iron complexes or organic hydroperoxides
[6] = system: rats; conditions: cerebral embolization, cerebral ischemia or basal forebrain lesions
[7] = clinical tests
[8] = oral

In the case of `COC1=C(OC)C(=O)C(CCCCCCCCCCO)=C(C)C1=O` [Idebenone, 2,3-dimethoxy-5-methyl-6-(10-hydroxydecyl)-1,4-benzoquinone], the “EEG and clinical symptoms” value [1] is given as “improvements in EEG and clinical symptoms”, the “protection against necrotic degeneration” value [2] is given as “protects cultured cortical neurons against necrotic degeneration” and the left ventricular enlargement ([3]; 5 mg/kg daily for 4-9 months, three patients) is given as “reduction of left ventricular enlargement”. For the same molecule, the “marker of oxidative DNA damage” value ([3]; oral 5 mg/kg daily for 8 weeks) was “significantly decreased”, the free radical scavenging [4] was “scavenged a variety of free radical species” and the microsomal lipid peroxidation [5] was “inhibit microsomal lipid peroxidation”. For the same molecule, the “learning and memory disturbances” value [6] was “ameliorates learning and memory disturbances”, the “psychological deficits (memory retention, disorientation)” value [7] was “effective in reducing psychological deficits” and the bioavailability [8] was “relatively, high”. For the same molecule, the water solubility was “low”.
